14 compounds from patent publication US8426420B2, “Heterocyclic pyrazole-carboxamidesas P2Y12 antagonists” (Sanofi, priority 2007, dated 2013) can be followed below.

Experiment [1] deals with human platelet rich plasma. As to the kind of experiment: Inhibition of human platelet aggregation, 96-well assay. The note with it: Homo sapiens, Platelet, 20 min. The class given is cell-based. The procedure: Inhibition of Human Platelet Aggregation
Alternatively to a binding assay which measures a compound's ability to bind to the P2Y12 receptor, the effect on cellular function was also determined. This ability of the compound was evaluated in two platelet aggregation assays: in 96-well plates and with the “Born”-method using single cuvettes.
Whole blood was collected from healthy volunteers using 20 ml syringes containing 2 ml of ACD-A Aqua-Citrat-Dextrose-A, Fresenius). The anticoagulated whole blood was transferred into 15 ml polypropylene conical tubes (10 ml per tube). The tubes were centrifuged for 15 minutes at 150×g at RT without using the centrifuge brake. This procedure leads to a pellet of cellular components and a supernatant of platelet rich plasma (PRP). The PRP layer was collected from each tube and pooled for each donor. To avoid carry over of cellular components following centrifugation, approximately 5 ml of PRP was left in the tube. The platelet concentration was determined using a Coulter Counter.
The 15 ml tubes containing the pellet of cellular components were centrifuged again for 10 minutes at 1940×g. This pelleted out most particulate blood constituents remaining, leaving a layer of Platelet Poor Plasma (PPP). The PPP was collected for each donor. The PRP layer, previously set aside, was diluted with PPP to a final concentration of approximately 3×E8 platelets/ml with the PPP.
The human platelet aggregation assay is performed in 96-well plates using a microtiter plate reader (SpectraMax Plus 384 with SoftMax Pro software from Molecular Devices). In the plate 15 μl of test compound at 10× final concentration in NaCl is mixed with 120 μl fresh PRP and incubated for 5 minutes. Following that incubation period, 15 μl of 40 μM ADP is added to the reaction mix. This addition of ADP is sufficient to induce aggregation in the absence of an inhibitor. The plates are then transferred to the microplate reader and aggregation is measured over 20 minutes. The instrument settings include:
Absorbance at 650 nm, run time 20 minutes with readings in 1-minute intervals and 50 seconds shaking between readings all performed at 37° C.

For the next experiment, the target named is human P2Y12 receptor (Homo sapiens, UniProt Q9H244). As to the kind of experiment: Human P2Y12 recombinant cell membrane binding assay with 33P 2MeS-ADP. The note with it: competition against 33P 2MeS-ADP, membranes of CHO cells with recombinant human P2Y12 receptor. The procedure:
The ability of the compounds of the formula Ito inhibit the P2Y12 receptor can be assessed by determining the concentration of the compound of the formula I that binds to the human P2Y12 Recombinant Cell Membrane Binding Assay with 33P 2MeS-ADP.
Human P2Y12 Recombinant Cell Membrane Binding Assay
The ability of a test compound to bind to the P2Y12 receptor was evaluated in a recombinant cell membrane binding assay. In this competitive binding assay, the test compound competed against a radiolabeled agonist for binding to the P2Y12 receptor, expressed on the cell membrane. Inhibition of binding of the labeled material was measured and correlated to the amount and potency of the test compound. This binding assay is a modification of the procedure described by Takasaki, J. et. al, Mol. Pharmacol., 2001, Vol. 60, pg. 432. A membrane preparation was prepared from Chinese Hamster Ovary (CHO) cells with recombinant expression of the human P2Y12 receptor according to standard procedures as a source of P2Y12.
To a 96-well microtiterplate the following were added: a) 24 μl of assay buffer (10 mM HEPES, 138 mM NaCl, […] KCl, 12 mM NaHCO3, 1 mM EDTA-Na, 0.1% BSA, pH 7.4) b) 1 μL compound in DMSO c) 50 μL P2Y12 CHO membrane (20 μg/ml) and after 15 min at RT d) 25 μL of 1.61 nM 33P 2MeS-ADP (Perkin Elmer NEN custom synthesis, specific activity ˜2100 Ci/mmol) made in assay buffer.
After 20 min incubation at RT samples were transferred to 96-well microtiter filterplates (Millipore HTS GF/B), pre-wetted for 20 min with 300 μL of stop buffer (10 mM HEPES, 138 mM NaCl pH 7.4) and then filtered through completely with a Millipore plate vacuum. Next, wells were washed four times with 400 μl/well of stop buffer on a plate vacuum. The plate was disassembled and allowed to air dry overnight with the filter side up over night. The filter plates were snapped into adapter plates and 0.1 mL of Microscint 20 Scintillation Fluid (Perkin Elmer #6013621) was added to each well. The top of the filterplate was sealed with plastic plate covers. The sealed filterplate were incubated 2 hours at RT. A Microbeta Scintillation Counter was used to measure counts.
Compounds were diluted as 10 mM DMSO stocks and tested in a four-point, five-fold dilution series run in triplicate beginning at 10 μM, final concentration. Data were analyzed using a four-parameter curve fit with a fixed minimum and maximum experimentally defined as the average positive and negative controls on each plate.

Sequence of human P2Y12 receptor (Q9H244 whole entry): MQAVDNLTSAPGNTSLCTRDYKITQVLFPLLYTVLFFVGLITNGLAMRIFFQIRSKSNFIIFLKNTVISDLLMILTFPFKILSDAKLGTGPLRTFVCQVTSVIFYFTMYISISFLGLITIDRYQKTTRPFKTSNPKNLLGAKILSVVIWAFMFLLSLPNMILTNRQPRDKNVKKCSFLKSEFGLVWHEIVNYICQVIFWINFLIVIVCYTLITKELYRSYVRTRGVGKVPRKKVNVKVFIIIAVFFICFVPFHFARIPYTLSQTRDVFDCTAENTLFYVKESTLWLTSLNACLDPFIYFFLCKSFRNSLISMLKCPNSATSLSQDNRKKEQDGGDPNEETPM

Turning to `O=C(O)CC[C@H](NC(=O)c1cc(OCC(=O)N2CCC[C@H]2C(=O)NC2CCC2)n(-c2ccccc2)n1)C(=O)N1CCN(C(=O)OC2CCC2)CC1` [Example 163, 4-[(S)-4-Carboxy-2-({5-[2-((S)-2-cyclobutylcarbamoyl-pyrrolidin-1-yl)-2-oxo-ethoxy]-1-phenyl-1H-pyrazole-3-carbonyl}-amino)-butyryl]-piperazine-1-carboxylic acid cyclobutyl ester], the IC50 is 10 nM in experiment [1] and 13 nM on human P2Y12 receptor.
As to `CCCCOC(=O)N1CCN(C(=O)[C@H](CCC)NC(=O)c2cc(OCC(=O)N3CCC[C@H]3C(=O)NC3CCC3)n(-c3ccccc3)n2)CC1` [Example 221, 4-[(S)-2-({5-[2-((S)-2-Cyclobutylcarbamoyl-pyrrolidin-1-yl)-2-oxo-ethoxy]-1-phenyl-1H-pyrazole-3-carbonyl}-amino)-pentanoyl]-piperazine-1-carboxylic acid butyl ester], the IC50 in experiment [1] was found to be 260 nM; at human P2Y12 receptor it was 34 nM.
The like results for `CCOC(=O)N1CCN(C(=O)[C@H](CCNS(=O)(=O)C(F)(F)F)NC(=O)c2cc(OCC(=O)N3CCC[C@H]3C(=O)NC3CCC3)n(-c3ccccc3)n2)CC1` [Example 188, 4-[(S)-2-({5-[2-((S)-2-Cyclobutylcarbamoyl-pyrrolidin-1-yl)-2-oxo-ethoxy]-1-phenyl-1H-pyrazole-3-carbonyl}-amino)-4-trifluoromethanesulfonylamino-butyryl]-piperazine-1-carboxylic acid ethyl ester] were, in that order, 490 nM and 10 nM.
The like results for `CCOC(=O)N1CCN(C(=O)[C@H](CCC(=O)O)NC(=O)c2cc(OCC(=O)N3CCC[C@H]3C(=O)NC3CC3)n(-c3cccc(F)c3)n2)CC1` [Example 71, 4-((S)-4-Carboxy-2-{[5-[2-((S)-2-cyclopropylcarbamoyl-pyrrolidin-1-yl)-2-oxo-ethoxy]-1-(3-fluoro-phenyl)-1H-pyrazole-3-carbonyl]-amino}-butyryl)-piperazine-1-carboxylic acid ethyl ester] were, in that order, 710 nM and 192 nM.
The like results for `CCOC(=O)N1CCN(C(=O)[C@H](CCC(=O)O)NC(=O)c2cc(OCC(=O)N3CCC[C@H]3C(=O)NC3CCC3)n(-c3ccccc3)n2)CC1` [Example 5] were, in that order, 30 nM and 19 nM.
As to `CCCCOC(=O)N1CCN(C(=O)[C@H](CCC(=O)OC)NC(=O)c2cc(OCC(=O)N3CCC[C@H]3C(=O)NC3CCC3)n(-c3ccccc3)n2)CC1` [Example 191, 4-[(S)-2-({5-[2-((S)-2-Cyclobutylcarbamoyl-pyrrolidin-1-yl)-2-oxo-ethoxy]-1-phenyl-1H-pyrazole-3-carbonyl}-amino)-4-methoxycarbonyl-butyryl]-piperazine-1-carboxylic acid butyl ester], the half-inhibitory concentration (IC50) in experiment [1] is 380 nM; at human P2Y12 receptor, 6 nM.
For `CCCCOC(=O)N1CCN(C(=O)[C@H](CCCCO)NC(=O)c2cc(OCC(=O)N3CCC[C@H]3C(=O)NC3CCC3)n(-c3ccccc3)n2)CC1` [Example 213, 4-[(S)-2-({5-[2-((S)-2-Cyclobutylcarbamoyl-pyrrolidin-1-yl)-2-oxo-ethoxy]-1-phenyl-1H-pyrazole-3-carbonyl}-amino)-6-hydroxy-hexanoyl]-piperazine-1-carboxylic acid butyl ester], the IC50 was 330 nM in experiment [1] and 22 nM on human P2Y12 receptor.
As for `CCOC(=O)N1CCN(C(=O)[C@H](CCC(=O)OCC2CCCO2)NC(=O)c2cc(OCC(=O)N3CCC[C@H]3C(=O)NC3CCC3)n(-c3ccccc3)n2)CC1` (stereo partly drawn) [Example 199, 4-[(S)-2-({5-[2-((S)-2-Cyclobutylcarbamoyl-pyrrolidin-1-yl)-2-oxo-ethoxy]-1-phenyl-1H-pyrazole-3-carbonyl}-amino)-4-(tetrahydro-furan-2-ylmethoxycarbonyl)-butyryl]-piperazine-1-carboxylic acid ethyl ester], the IC50 is 920 nM in experiment [1] and 139 nM on human P2Y12 receptor.
As to `CCOC(=O)N1CCN(C(=O)[C@H](CNC(C)=O)NC(=O)c2cc(OCC(=O)N3CCC[C@H]3C(=O)NC3CCC3)n(-c3ccccc3)n2)CC1` [Example 87, 4-[(S)-3-Acetylamino-2-({5-[2-((S)-2-cyclobutylcarbamoyl-pyrrolidin-1-yl)-2-oxo-ethoxy]-1-phenyl-1H-pyrazole-3-carbonyl}-amino)-propionyl]-piperazine-1-carboxylic acid ethyl ester], the IC50 turned out to be 1130 nM in experiment [1] and 184 nM on human P2Y12 receptor.
As to `CCOC(=O)N1CCN(C(=O)[C@H](CC(=O)O)NC(=O)c2cc(OCC(=O)N3CCC[C@H]3C(=O)NCCF)n(-c3cccc(F)c3)n2)CC1` [Example 78, 4-((S)-3-Carboxy-2-{[5-[2-((S)-2-(2-fluoroethylcarbamoyl)-pyrrolidin-1-yl)-2-oxo-ethoxy]-1-(3-fluoro-phenyl)-1H-pyrazole-3-carbonyl]-amino}-propionyl)-piperazine-1-carboxylic acid ethyl ester], the IC50 on human P2Y12 receptor was 190 nM.
Still for that read-out and setting: under `CCCCOC(=O)N1CCN(C(=O)[C@H](CCCCOCc2ccccc2)NC(=O)c2cc(OCC(=O)N3CCC[C@H]3C(=O)NC3CCC3)n(-c3ccccc3)n2)CC1` [Example 196, 4-[(S)-6-Benzyloxy-2-({5-[2-((S)-2-cyclobutylcarbamoyl-pyrrolidin-1-yl)-2-oxo-ethoxy]-1-phenyl-1H-pyrazole-3-carbonyl}-amino)-hexanoyl]-piperazine-1-carboxylic acid butyl ester] stands 23 nM; under `CCCCOC(=O)N1CCN(C(=O)[C@H](CC(C)C)NC(=O)c2cc(OCC(=O)N3CCC[C@H]3C(=O)NC3CCC3)n(-c3ccccc3)n2)CC1` [Example 226, 4-[(S)-2-({5-[2-((S)-2-Cyclobutylcarbamoyl-pyrrolidin-1-yl)-2-oxo-ethoxy]-1-phenyl-1H-pyrazole-3-carbonyl}-amino)-4-methyl-pentanoyl]-piperazine-1-carboxylic acid butyl ester], 59 nM.
For `CCCOC(=O)CC[C@H](NC(=O)c1cc(OCC(=O)N2CCC[C@H]2C(=O)NC2CCC2)n(-c2ccccc2)n1)C(=O)N1CCN(C(=O)OCC)CC1` [Example 133, 4-[(S)-2-({5-[2-((S)-2-Cyclobutylcarbamoyl-pyrrolidin-1-yl)-2-oxo-ethoxy]-1-phenyl-1H-pyrazole-3-carbonyl}-amino)-4-propoxycarbonyl-butyryl]-piperazine-1-carboxylic acid ethyl ester], at human P2Y12 receptor, the half-inhibitory concentration (IC50) stood at 42 nM.
The same measure, in the same setting: next, `CCOC(=O)N1CCN(C(=O)[C@H](CCC(=O)O)NC(=O)c2cc(OCC(=O)N3CCC[C@H]3C(=O)NCCF)n(-c3ccccc3)n2)[C@H](C)C1` [Example 151, (R)-4-[(S)-4-Carboxy-2-({5-[2-((S)-2-(2-fluoroethyl-carbamoyl)-pyrrolidin-1-yl)-2-oxo-ethoxy]-1-phenyl-1H-pyrazole-3-carbonyl}-amino)-butyryl]-3-methyl-piperazine-1-carboxylic acid ethyl ester]: 166 nM.

As a reminder, the IC50 is the concentration needed to halve the response being measured.
